Values after ≈ are worked out from the molar mass of the structure shown. Values joined by “and” are separate entries in the source; they are usually repeats but may differ in a detail not shown here. Equal values may be shown once. Read-outs that look alike come from different tables or passages of the source. Marks after values point to notes of the source that are not given here.
Assays:
[1] = test system: M. haemolytica M7/2, serotype A:1, ID 6357; experiment: Mannheimia haemolytica cattle lung infection model, efficacy (Example 8); type: in vivo, Holstein black pied cattle calves; parameters: key to General behavior, score: 0 = normal; 1 = slightly depressive; 2 = moderately depressive; 3 = highly depressive; 4 = recumbency; key to Re-isolation of bacteria, Left Bronchial swab / Re-isolation of bacteria, Right Bronchial swab: − no bacterial growth; + low; ++ medium; +++ high amount of bacterial growth; settings: for Food consumption, cumulated for all animals in the group: 3 calves; for Lung score (including grade and percent Lung consolidation): grade of consolidation 0 to 3
Experimental: 15 male Holstein black pied cattle calves of ca. 4 months age were randomly assigned to the study groups ensuring an equal distribution of body weight. The animal weight was approximately 98-133.5 kg on D-1.
Calves were infected on Day 0 via intratracheal instillation of approximately 300 mL of a M. haemolytica PBS suspension containing approximately 3×10^9 CFU M. haemolytica in late log phase.
Three animals each were treated one hour after infection by subcutaneous (SC) administration of Compound 329 in an aqueous 30% (w/v) Captisol® solution for injection at a dose of 10 mg/kg BW.
The respective dose volume was injected on the sides of the thoracic wall. Injection volumes exceeding 10 mL were divided into one portion of 10 mL administered to the left side and the remaining rest administered at different injection sites on the other side. Animals in one control group were treated with a commercially available Enrofloxacin solution (Baytril ® 10%, Bayer Animal Health) at the recommended dose of 10 mg/kg BW. The second control group was treated with the galenic diluent (30% (w/v) Captisol®, dissolved in water) as placebo.
Food consumption was measured. Single individual blood samples were collected from the 12 animals at the following time points: D-1 (predose), 30 minutes, 2, 4, 6, 24 h and at D2 (ca. 45 h) after administration. After the day 2 blood sampling, the infected cattle were slaughtered. The lungs were weighted. Lung states and lung scores were observed morphologically.
At necropsy from animals treated with test items or the positive control, samples of epithelial lining fluid (ELF), lung tissue, and additionally tissue of liver and kidney were collected. From each lung two bacteriological swaps were taken from the left and right bronchus.
From each lung two tissue samples were collected by clipping from at least two locations, one from morphologically unchanged tissue, one from the edge of pathomorphologically changed areas.

[2] = Plasma and tissue concentrations in infected calves (Example 10); type: in vivo, cattle calves; settings: individual animals and mean; for Concentration, Plasma 0 h: predose
[3] = test system: Pasteurella multocida PM 10775 (080130003051, BRD field isolate); experiment: MIC, broth-microdilution (CLSI VET01-A4); type: cell-based
Procedure, shortened: (§1)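 MIC values follow CLSI VET01-S3 interpretation, scored as the lowest concentration free of visible turbidity within a doubling dilution series in microdilution trays.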

[4] = test system: Mannheimia haemolytica MH 10720 (154, BRD field isolate); experiment: MIC, broth-microdilution (CLSI VET01-A4); type: cell-based
Procedure, shortened: as §1

[5] = test system: Acinetobacter baumanii AB 16496 (ATCC 19606, reference strain); experiment: MIC, broth-microdilution (CLSI VET01-A4); type: cell-based; settings: strain AB 16496
Procedure, shortened: (§2)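 Broth microdilution per CLSI VET01-A4 with doubling dilution series of compound. MIC taken as lowest concentration giving no visible turbidity by unaided eye, interpreted per CLSI VET01-S3.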

[6] = test system: Pasteurella multocida PM 14426 (0006-439, BRD field isolate, macrolide-resistant); experiment: MIC, broth-microdilution (CLSI VET01-A4); type: cell-based; settings: strain PM 14426, macrolide-resistant
Procedure, shortened: as §2

[7] = test system: Acinetobacter baumanii AB 15919 (IV369-2012, dermatitis field isolate); experiment: MIC, broth-microdilution (CLSI VET01-A4); type: cell-based; settings: strain AB 15919
Procedure, shortened: as §2

[8] = test system: Mannheimia haemolytica MH 12180 (KLI-02944, BRD field isolate); experiment: MIC, broth-microdilution (CLSI VET01-A4); type: cell-based; settings: strain MH 12180
Procedure, shortened: as §2

[9] = test system: Staphylococcus aureus SA 5816 (2139, mastitis field isolate); experiment: MIC, broth-microdilution (CLSI VET01-A4); type: cell-based; settings: strain SA 5816
Procedure, shortened: as §2

[10] = test system: Staphylococcus aureus SA 6114 (ATCC 29213, reference strain); experiment: MIC, broth-microdilution (CLSI VET01-A4); type: cell-based; settings: strain SA 6114
Procedure, shortened: as §2

[11] = infected calves, SC 10 mg/kg, in words
[12] = section on day 2, infected calves, SC 10 mg/kg, individual animals and mean, 10 mg/kg
[13] = section on day 2, infected calves, SC 10 mg/kg, individual animals and mean, 10 mg/kg, mean
[14] = section on day 2, infected calves, SC single 10 mg/kg, individual animals
[15] = SC single 5 mg/kg (35% Cavitron), listed as C. 239, 5 mg/kg
[16] = SC single 10 mg/kg (C 231 in 10% Poloxamer 188; C 329 in 35% Cavitron), 10 mg/kg

In the case of `CC(C)(N)C(NC(=O)c1ccc(C#Cc2ccc(CNC3CC3)cc2)cc1)C(=O)NO` (stereo not shown) [C. 329], the “General behavior, score” value ([1]; D 0 am (before infection), calves, SC 10 mg/kg, individual animals and mean, 10 mg/kg) is reported as 0, the “General behavior, score” value ([1]; D 0 am (before infection), calves, SC 10 mg/kg, individual animals and mean, 10 mg/kg, mean) is reported as 0.0 score and the “Food consumption, cumulated for all animals in the group” value (from here on “Food consumption, cumulated”) ([1]; D 0 am, after infection and treatment, SC 10 mg/kg) is reported as 470 g. For the same compound, the “Food consumption, cumulated” value ([1]; D 0 pm, SC 10 mg/kg) was 1800** g, the “General behavior, score” value ([1]; D 0 pm, calves infected with M. haemolytica, SC 10 mg/kg 1 h after infection, individual animals and mean, 10 mg/kg) was 2 and 1 (2×) and the “General behavior, score” value ([1]; D 0 pm, calves infected with M. haemolytica, SC 10 mg/kg 1 h after infection, individual animals and mean, 10 mg/kg, mean) was 1.3 score. For the same compound, the “General behavior, score” value ([1]; D 1 am, calves infected with M. haemolytica, SC 10 mg/kg 1 h after infection, individual animals and mean, 10 mg/kg) was 1 and 0 (2×), the “General behavior, score” value ([1]; D 1 am, calves infected with M. haemolytica, SC 10 mg/kg 1 h after infection, individual animals and mean, 10 mg/kg, mean) was 0.3 score and the “General behavior, score” value ([1]; D 1 pm, calves infected with M. haemolytica, SC 10 mg/kg 1 h after infection, individual animals and mean, 10 mg/kg) was 1 (2×) and 0. The “General behavior, score” value ([1]; D 1 pm, calves infected with M. haemolytica, SC 10 mg/kg 1 h after infection, individual animals and mean, 10 mg/kg, mean) was 0.7 score, the “General behavior, score” value ([1]; D 2 am, calves infected with M. haemolytica, SC 10 mg/kg 1 h after infection, individual animals and mean, 10 mg/kg) was 0 and the “General behavior, score” value ([1]; D 2 am, calves infected with M. haemolytica, SC 10 mg/kg 1 h after infection, individual animals and mean, 10 mg/kg, mean) was 0.0 score. For the same compound, the “Food consumption, cumulated” value ([1]; D +1 am, SC 10 mg/kg) was 4800 g, the “Food consumption, cumulated” value ([1]; D +1 pm, SC 10 mg/kg) was 4800 g and the “Food consumption, cumulated” value ([1]; D −1 (before infection), SC 10 mg/kg) was 4800 g. For the same compound, the “general behavior and food uptake” value [1, 11] was “comparable to the positive control”, the mean bacterial re-isolation [1, 11] was “Very low” and the “Lung score (including grade and percent Lung consolidation)” value [1, 12] was 32.4 and 29.5 and 37.7. The “Lung score (including grade and percent Lung consolidation)” value [1, 13] was 33.2, the Lung consolidations [1, 12] was 20.9% and 14.8% and 21.6% and the Lung weight [1, 12] was 1717 g and 1549 g and 1583 g. The Lung/body weight ratio [1, 12] was ~1.3% and 1.36% and 1.30% and 1.41%, the Lung consolidations [1, 13] was 19.1% and the Lung weight [1, 13] was 1616 g. For the same compound, the “Re-isolation of bacteria, Left Bronchial swab” value [1, 14] was “−”, the “Re-isolation of bacteria, Right Bronchial swab” value [1, 14] was “−” and the “efficacy in the lung model infection with M. haemolytica in calves” value ([1]; single SC treatment with 10 mg/kg BW, conclusion in words) was “good efficacy”. The “Concentration, Plasma 0.5 h” value [2, 15] was 1140 ng/mL and 830 ng/mL and 945 ng/mL, the “Concentration, Plasma 2 h” value [2, 15] was 327 ng/mL and 326 ng/mL and 221 ng/mL and the “Concentration, Plasma 4 h” value [2, 15] was 146 ng/mL and 210 ng/mL and 130 ng/mL. For the same compound, the “Concentration, Plasma 6 h” value [2, 15] was 110 ng/mL and 156 ng/mL and 78.7 ng/mL, the “Concentration, Plasma 24 h” value [2, 15] was 32.2 ng/mL and 35.1 ng/mL and 22.8 ng/mL and the “Concentration, Plasma 48 h” value [2, 15] was 16.1 ng/mL and 18.2 ng/mL and 12.8 ng/mL. The “Concentration, Tissue (48 h) ELF” value [2, 15] was 91.8 ng/mL and 214 ng/mL and 324 ng/mL, the “Concentration, Tissue (48 h) Kidney” value [2, 15] was 8890 ng/mL and 3990 ng/mL and 4940 ng/mL and the “Concentration, Tissue (48 h) Liver” value [2, 15] was 2060 ng/mL and 1550 ng/mL and 1740 ng/mL. The “Concentration, Tissue (48 h) Lung” value [2, 15] was 1560 ng/mL and 1320 ng/mL and 1360 ng/mL, the “Concentration, Tissue (48 h) Muscle” value [2, 15] was 53.3 ng/mL and 45.7 ng/mL and 54.4 ng/mL and the “Concentration, Plasma 0.5 h” value [2, 16] was 1160 ng/mL and 1610 ng/mL and 1400 ng/mL. For the same compound, the “Concentration, Plasma 2 h” value [2, 16] was 476 ng/mL and 439 ng/mL and 550 ng/mL, the “Concentration, Plasma 4 h” value [2, 16] was 310 ng/mL and 267 ng/mL and 282 ng/mL and the “Concentration, Plasma 6 h” value [2, 16] was 210 ng/mL and 172 ng/mL and 174 ng/mL. For the same compound, the “Concentration, Plasma 24 h” value [2, 16] was 69.1 ng/mL and 42.9 ng/mL and 57.5 ng/mL, the “Concentration, Plasma 48 h” value [2, 16] was 49.3 ng/mL and 38.5 ng/mL and 32.4 ng/mL and the “Concentration, Tissue (48 h) ELF” value [2, 16] was 1090 ng/mL and 372 ng/mL and 250 ng/mL. For the same compound, the “Concentration, Tissue (48 h) Kidney” value [2, 16] was 6570 ng/mL and 20800 ng/mL and 4620 ng/mL, the “Concentration, Tissue (48 h) Liver” value [2, 16] was 3930 ng/mL and 3650 ng/mL and 2730 ng/mL and the “Concentration, Tissue (48 h) Lung” value [2, 16] was 2780 ng/mL and 3370 ng/mL and 2790 ng/mL. The “Concentration, Tissue (48 h) Muscle” value [2, 16] was 75.3 ng/mL and 68.5 ng/mL and 85.9 ng/mL, the “Concentration, Plasma 0 h” value ([2]; SC single 5 mg/kg (35% Cavitron)) was “BLQ” and the “Concentration, Plasma 0 h” value ([2]; SC single 10 mg/kg (C 231 in 10% Poloxamer 188; C 329 in 35% Cavitron)) was “BLQ”. For the same compound, the “MIC PM 10775” value ([3]; Pasteurella multocida PM 10775) was “<=0.1 μM”, the MIC ([3]; strain PM 10775) was ≤0.016 µg/mL and the MIC ([4]; Mannheimia haemolytica MH 10720, read-out: MIC MH 10720) was 0.4 µM. For the same compound, the MIC ([4]; strain MH 10720) was 0.5 µg/mL, the MIC [5] was >16 µg/mL and the MIC [6] was ≤0.016 µg/mL. For the same compound, the MIC [7] was 16 µg/mL (≈ 38 µM), the MIC [8] was 0.5 µg/mL (≈ 1.19 µM) and the MIC [9] was >16 µg/mL. The MIC [10] was >16 µg/mL.

Source: patent publication US20230000813A1, “COMPOUND FOR THE TREATMENT OF BOVINE OR SWINE RESPIRATORY DISEASE” (Intervet Inc., priority 2016, published 2023)
